How the values were obtained:
[1] = test system: human primary neutrophils; experiment: Neutrophil apoptosis by sub G1 analysis (DNA fragmentation); type: cell-based; conditions: neutrophils cultured overnight with GM-CSF (65% without)
Procedure: Neutrophils are isolated from the blood as described in WO 02/04657 and resuspended at a concentration of 2×10^6/ml. Five hundred microlitres are pipetted into wells of a 24 well plate and incubated in the presence or absence of survival factors.
After this incubation, the neutrophils are carefully resuspended by gentle agitation and the total contents of the well are placed into an eppendorf and centrifuged@2800 rpm for 2 min@RT in a minifuge. The cell pellet is carefully resuspended in 300 μl of ice cold hypotonic fluorochrome solution (50 μg/ml Propidium Iodide, 0.1% Sodium Citrate and 0.1% Triton X-100) and placed in a fridge for 24 h@4° C.
Prepared samples are analysed with a FacsCalibre flow cytometer (Becton Dickinson) using double discrimination to ensure single cell suspension with Log Forward and Side Scatter Parameter acquisition.
(§1) Neutrophils are seeded at 2×10^6/ml in a 24 well plate in full culture medium (1 ml/well). A PI3K inhibitor (Ly294002) is added to the neutrophils to a final concentration of 20 μM prior to the addition of GM-CSF (50 units/ml). Control wells received either no GM-CSF or F GM-CSF (50 units/ml) in the absence of inhibitor. Neutrophils are cultured for 18 h at 37° C. prior to harvest and prepared for sub G1 analysis, as previously described.
as §1, with “An AKT” for “A PI3K”, “([1L-6-Hydroxymethyl-chiro-inositol 2-O-methyl-3-O-octadecylcarbonate] (Calbiochem))” for “(Ly294002)”, “μM and incubated for 2 h” for “μM”, “receive” for “received”, “or” for “or F”

TF1 cells [2] = experiment: TF1 apoptosis by light scatter (FSC/SSC, live gate) analysis; type: cell-based, human; conditions: TF1, 48 h, with GM-CSF 2 ng/ml (35% upon factor withdrawal)
Procedure: Light Scatter Analysis takes advantage of the fact that by using the laser beam of a flow cytometer one can determine the size (Forward Scatter) and granularity (Side Scatter) of a cell. The morphological changes associated with apoptosis, such as decreased size (shrinkage) and granularity affect these parameters. As a consequence, cells undergoing apoptosis will move to the left and slightly down, from the parameters of a healthy population.
TF1 cells are plated into 24 well plates (2×10^5/ml) and are cultured for 48 h in the presence or absence of GM-CSF (2 ng/ml). Cells are then harvested by centrifugation (1000 rpm, for 10 min) and washed in PBS. […] Forward and Side scatter parameters are assessed using Cell Quest software.
Culturing TF1 cells in the absence of GM-CSF induces cell death. This death induces morphological changes in the Forward and Side Scatter parameters that can be detected by FacsCalibre analysis. […]
To assess the antiapoptotic effect of BCL2 over-expression in TF1 cells, cells are transduced with either retrovirus expressing full length BCL2 coding sequence or control vector lacking BCL2. […] The percentage of transduced cells remaining in the live gate (an arbitrary region pre-set on a healthy population of TF1 cells grown in the presence of GM-CSF (2 ng/ml)) is recorded. An index of antiapoptotic activity is calculated by computing the difference in samples ±GMCSF. […]

TF1 cells [3] = experiment: TF1 apoptosis by sub G1 analysis; type: cell-based, human; conditions: TF1, 48 h, with GM-CSF (approximately 55% in the absence)
Procedure: TF1 cells are cultured for 48 h in the presence or absence of GM-CSF (2 ng/ml). Cells are then harvested by centrifugation (1000 rpm, for 10 min) and washed in PBS. The pellet is resuspended in PBS (2×10^5 cells/ml) and 1 ml is then added in a dropwise fashion to ice cold 70% EtoH whilst continuously vortexing. Cells are then permeabilized by incubating at −20° C. for 24 h. To stain DNA, cells are centrifuged and washed in PBS. Cells are resuspended in 500 μl Propidium Iodide Buffer (Propidium iodide (50 μg/ml); RNAse A (50 μg/ml) for 15 min in the dark before flow cytometric analysis using a FacsCalibre (Becton Dickinson). Analysis is performed using Cell Quest software.

A549 cells = experiment: Anchorage Independence/Soft Agar Assay, A549; type: cell-based, human; parameters: PERCENTAGE SURVIVAL RELATIVE TO MS, A549, n = 2: tested at 2 µg; conditions: soft agar
Procedure: (§2) The Anchorage Independence/Soft Agar Assay allows assessment of the influence of modulation of gene expression on clonal tumouroid formation by observing and quantifying tumouroid morphology and colony number over an extended period of logarithmic growth thereby ascertaining any cell death is induced.
(§3) Cells are seeded into a 6-well plate and allowed to adhere overnight at 37° C. in a humidified atmosphere containing 5% CO2 in air. Cells are next transfected with siRNA Oligomers, at a concentration of 2 μg, against the genes of interest. Transfections continued for 4 hrs after which the transfection solution is removed and cells are refed with fresh medium and allowed incubate overnight. Transfected cells are next harvested for seeding into soft agar assay as described below. Cells are seeded at 5×10^4 cells per well of a 6 well plate and incubated over a 12/14-Day period whilst proliferating in a 0.05% Agar/Medium cell suspension at 37° C. in a humidified atmosphere containing 5% CO2 in air. Colonies formed are subsequently stained with Crystal Violet, their morphology is assessed and colonies formed are enumerated at a 4× magnification.
(§4) The cytotoxic effect of each gene is determined by a reduction in colony number compared to our MS control, but any influence on the morphology of the colony is also noted.
(§5) Examples of genes with a cytotoxic effect on knockdown as detected by the soft agar assay are outlined in Table 14. Table 14 gives the percentage survival of the indicated cell lines post transfection with siRNA oligomers to target genes relative to that of the missense in an anchorage independent assay. As an internal reference, the known survival gene Survivin was also targeted by siRNA. This table illustrates the magnitude of cytotoxicity induced by the knockdown of each target gene compared to the MS control i.e. the number of colonies formed are stained with Crystal violet and enumerated visually as discussed.

HCT15 cells = experiment: Anchorage Independence/Soft Agar Assay, HCT15; type: cell-based, human; parameters: PERCENTAGE SURVIVAL RELATIVE TO MS, HCT15, n = 2: tested at 2 µg; PERCENTAGE SURVIVAL RELATIVE TO MS, HCT15, n = 1: tested at 2 µg siRNA; conditions: soft agar
Procedure: as §2, §3, §4, §5

MCF7 cells = experiment: Anchorage Independence/Soft Agar Assay, MCF7; type: cell-based, human; parameters: PERCENTAGE SURVIVAL RELATIVE TO MS, MCF7, n = 2: tested at 2 µg; conditions: soft agar
Procedure: as §2, §3, §4, §5

U251 cells = experiment: Anchorage Independence/Soft Agar Assay, U251; type: cell-based, human; conditions: soft agar, experiment n = 1
Procedure: as §2
as §3, with “Cells are seeded at 5×10^4 cells per well of a 6 well plate and incubated over a 12/14-Day period whilst proliferating in a 0.05% Agar/Medium cell suspension at 37° C. in a humidified atmosphere containing 5% CO2 in air.” left out
as §4
(§6) Examples of genes with a cytotoxic effect on knockdown as detected by the soft agar assay are outlined in Table 14. […]

PC3 cells [4] = experiment: Anchorage Independence/Soft Agar Assay, PC3; type: cell-based, human; conditions: soft agar, experiment n = 1
Procedure: as §2
as §3, with “Cells are seeded at 5×10^4 cells per well of a 6 well plate and incubated over a 12/14-Day period whilst proliferating in a 0.05% Agar/Medium cell suspension at 37° C. in a humidified atmosphere containing 5% CO2 in air.” left out
as §4, §6

cancer cell lines = experiment: Anchorage Independence/Soft Agar Assay, summary over the cell lines; type: cell-based, human; conditions: 14-day anchorage independent assay, over the cell lines examined
Procedure: as §2, §3, §4
As an internal reference, the known survival gene ‘Survivin’ was also targeted by siRNA.

PC3 cells [5] = experiment: Cell Migration Assay (Chemicon ECM550, Boyden Chamber); type: cell-based, human; conditions: 48 hours post siRNA transfection, 24-hour migration, compared to missense and UPA controls
Procedure: Cells are seeded into a 6-well plate and allowed to adhere overnight at 37° C. in a humidified atmosphere containing 5% CO2 in air. Cells are next transfected with siRNA oligonucleotides, at a concentration of 2 μg/ml, against the genes of interest, as described in detail in Example 5. Transfections are continued for 4 hrs after which the transfection solution is removed and cells are refed with fresh medium and allowed incubate overnight. Transfected cells are next harvested for seeding into migration assay as described below.
The Chemicon Cell Migration Assay (ECM550) is used to quantify the number of PC3 cells that successfully migrate across a Boyden Chamber towards a chemoattractant over a 24-hour incubation period. Assessment of PC3 cell migration is performed routinely 48 hours post siRNA Transfection. The effect of reducing the expression of genes of interest is compared to that of a missense control oligomer and to the influence of UPA knockdown, which is reported in the literature to decrease PC3 cell migration. The Migration Assay is performed as per manufacturers inductions. Results are illustrated in FIGS. 39 to 41.
Cells were plated and transfected with the indicated siRNA as described above. Migration of PC3 cells was tracked using a fluorescent dye. Consequently increases in fluorescent units correlates positively with increased migration.

[6] = test system: OAS1 and GBP1 mRNA in HCT15, A549, SKOV3, DU145, PC3, A498, U251 cells; experiment: Interferon response genes mRNA by QPCR after siRNA transfection; type: cell-based, human; conditions: compared to untransfected cells
Excerpt: Inhibiting gene expression using siRNA has been associated with non-specific induction of interferon from target cells (Sledz C A et al. Nat Cell Biol. September 2003; 5(9): 834-9. 2003). Since induction of interferon may possibly affect biological assays, we control for the effect of our siRNA oligonucleotides on inducing interferon. This is examined by quantitating message RNA levels for two interferon responsive genes, namely OAS1, and GBP1, both before and after siRNA transfection.
QPCR Primers, designed by MWG Biotech as described previously, are as follows.
The levels of expression of OAS1 and GBP1 in siRNA-transfected cells are expressed as a percentage of that in untransfected control cells.

ELAV-1 = experiment: Validation of missense control siRNA on ELAV-1 expression; type: cell-based; conditions: missense control with 4 base pair mismatch substitutions
Excerpt: The missense control outlined above is designed by introducing 4 base pair mismatch substitutions into the siRNA oligo sequence for ELAV-1 (Accession number xm—008947; gi 1475941).

GM-CSF: a 22 kDa proinflammatory cytokine; survival factor for neutrophils and TF1 cells
percentage of cells with a sub G1 profile [1]: 9.7%
percentage of cells in the live gate (TF1 cells [2]): 77%
cells with sub-G1 profiles (TF1 cells [3]): 5%

siRNA CNK/PRK: sense UCGUAGUGCUUGUACUUACtt, antisense GUAAGUACAAGCACUACGAtt (sense UCGUAGUGCUUGUACUUACTT; antisense GUAAGUACAAGCACUACGATT; chemistry not given here)
PERCENTAGE SURVIVAL RELATIVE TO MS, A549, n = 1 (A549 cells; experiment n = 1): 91%
PERCENTAGE SURVIVAL RELATIVE TO MS, A549, n = 2 (A549 cells; experiment n = 2): 39.6%
PERCENTAGE SURVIVAL RELATIVE TO MS, HCT15, n = 1 (HCT15 cells; experiment n = 1): 38.6%
PERCENTAGE SURVIVAL RELATIVE TO MS, HCT15, n = 2 (HCT15 cells; experiment n = 2): 72.3%
PERCENTAGE SURVIVAL RELATIVE TO MS, MCF7, n = 1 (MCF7 cells; experiment n = 1): 98.2%
PERCENTAGE SURVIVAL RELATIVE TO MS, MCF7, n = 2 (MCF7 cells; experiment n = 2): 66.3%
PERCENTAGE SURVIVAL RELATIVE TO MS, U251, n = 1 (U251 cells): 13.5%
PERCENTAGE SURVIVAL RELATIVE TO MS, PC3, n = 1 (PC3 cells [4]): 10%
cell death / apoptosis in the soft agar assay (cancer cell lines): induced toxicity consistently in the HCT15 cell line
migration of PC3 cells (PC3 cells [5]): increases the ability of cancer cells to migrate

siRNA MS: missense control siRNA, sense UGAGAAUGUGAUGCGCGUCTT, antisense GACGCGCAUCACAUUCUCATT (chemistry not given here)
mRNA levels of interferon response genes OAS1 and GBP1 ([6]; HCT15, A549, SKOV3, DU145 and U251 cells): does not increase mRNA levels of interferon response genes
mRNA levels of interferon response genes OAS1 and GBP1 ([6]; PC3 and A498 cells): Some increase in mRNA of interferon response genes
expression of ELAV-1 (ELAV-1): incapable of decreasing the expression ELAV-1

From patent publication US20050019746A1, “Apoptosis-related kinase/GPCRs” (EiRx Therapeutics Limited, priority 2003, published 2005)
